Read-outs that look alike come from different tables or passages of the source.
Key:
Type in all cases: cell-based
HL-60 (MLL-WT) cells = test: Cell proliferation (alamarBlue) HL-60; conditions: Homo sapiens, read-out: IC50 proliferation
Procedure: (§1) Cells were seeded in the optimal growth medium at 4000–5000 cells/well in a 96 MTP and cultured 18–24 h before inhibitor treatment.

Jurkat (MLL-WT) cells = test: Cell proliferation (alamarBlue) Jurkat; conditions: Homo sapiens
Procedure: as §1

OCI-AML-5 (MLL-WT) cells = test: Cell proliferation (alamarBlue) OCI-AML-5; conditions: Homo sapiens
Procedure: as §1

OCI-AML-3 (MLL-WT) cells = test: Cell proliferation (alamarBlue) OCI-AML-3; conditions: Homo sapiens
Procedure: as §1

MV4-11 (MLL-AF4) cells = test: Cell proliferation (alamarBlue) MV4-11; conditions: Homo sapiens
Procedure: as §1

RS4;11 (MLL-AF4) cells = test: Cell proliferation (alamarBlue) RS4;11; conditions: Homo sapiens, RS4-11, read-out: IC50 proliferation, RS4;11 (MLL-AF4)
Procedure: as §1

SEM (MLL-AF4) cells = test: Cell proliferation (alamarBlue) SEM
Procedure: as §1

ML-2 (MLL-AF6) cells = test: Cell proliferation (alamarBlue) ML-2
Procedure: as §1

MOLM-13 (MLL-AF9) cells = test: Cell proliferation (alamarBlue) MOLM-13; conditions: Homo sapiens
Procedure: as §1

MOLM-14 (MLL-AF9) cells = test: Cell proliferation (alamarBlue) MOLM-14; conditions: Homo sapiens
Procedure: as §1

NOMO-1 (MLL-AF9) cells = test: Cell proliferation (alamarBlue) NOMO-1; conditions: Homo sapiens
Procedure: as §1

[1] = system: OCI-AML-2 (MLL-AF9) cells; test: Cell proliferation (alamarBlue) OCI-AML-2; conditions: Homo sapiens
Procedure: as §1

KOPN-8 (MLL-ENL) cells = test: Cell proliferation (alamarBlue) KOPN-8; conditions: Homo sapiens
Procedure: as §1

EOL-1 (MLL-TD) cells = test: Cell proliferation (alamarBlue) EOL-1; conditions: Homo sapiens
Procedure: as §1

[2] = system: MV4-11, MOLM-13 and HL-60 cells; test: Cell proliferation, all three tested AML cell lines; conditions: 96 h, read-out: anti-proliferation IC50s
Procedure: Cells were seeded in the optimal growth medium at 4000–5000 cells/well in a 96 MTP and cultured 18–24 h before inhibitor treatment. Upon treatment with the indicated inhibitor, cells were cultured for 24 h, 96 h, and 168 h and effects on proliferation were determined using alamarBlue Cell Viability Reagent (Thermo Fisher Scientific, Waltham, MA, USA).

[3] = system: MLL-fused cell lines (MV4-11, MOLM-13); test: CD11b protein expression by flow cytometry, MLL-fused lines; conditions: 4 and 7 days of treatment
Procedure: (§2) Four thousand cells per well were seeded 24 h before they were treated with the indicated inhibitor in a 96 MTP. After 4 or 7 days of treatment, cells were washed with PBS and stained with CD11b - APC (BioLegend, San Diego, California, USA) and DAPI (Thermo Fisher Scientific, Waltham, Massachusetts, USA) or AnnexinV – FITC (BioLegend, San Diego, California, USA) and PI solution (Sigma-Aldrich St. Louis, Missouri, USA) using the FACS Canto II (BD Biosciences, Heidelberg, Germany) and data was analyzed with FACSDiva software.

HL-60 cells = test: CD11b protein expression by flow cytometry, HL-60; conditions: non-fused HL-60 cell line, 4 and 7 days of treatment
Procedure: as §2

[4] = system: MV4-11, MOLM-13 and HL-60 cells; test: Cell cycle analysis (PI, flow cytometry); conditions: 4 days of treatment (Figure S2)
Procedure: Cells were washed with PBS and fixed overnight at − 20 °C with 70% ethanol. Fixed cells were stained with PI solution (Sigma-Aldrich St. Louis, MO, USA) solution containing RNase A (Qiagen, Hilden, Germany). Fluorescence was measured with FACS Canto II (BD Biosciences, Heidelberg, Germany) flow cytometer and data was analyzed with FACSDiva software.

IC50 (HL-60 (MLL-WT) cells; HL-60, 24 h): > 10000 nM | IC50 (HL-60 (MLL-WT) cells; HL-60, 96 h): 800 nM | IC50 (HL-60 (MLL-WT) cells; HL-60, 168 h): 270 nM | IC50 (Jurkat (MLL-WT) cells; read-out: IC50 proliferation, Jurkat (MLL-WT), D1): > 10000 nM | IC50 (Jurkat (MLL-WT) cells; read-out: IC50 proliferation, Jurkat (MLL-WT), D4): 30 nM | IC50 (Jurkat (MLL-WT) cells; read-out: IC50 proliferation, Jurkat (MLL-WT), D7): 50 nM | IC50 (OCI-AML-5 (MLL-WT) cells; OCI-AML-5, read-out: IC50 proliferation, OCI-AML-5 (MLL-WT), D1): > 10 µM | IC50 (OCI-AML-5 (MLL-WT) cells; OCI-AML-5, read-out: IC50 proliferation, OCI-AML-5 (MLL-WT), D4): > 10 µM | IC50 (OCI-AML-5 (MLL-WT) cells; OCI-AML-5, read-out: IC50 proliferation, OCI-AML-5 (MLL-WT), D7): > 10 µM | IC50 (OCI-AML-3 (MLL-WT) cells; OCI-AML-3, read-out: IC50 proliferation, OCI-AML-3 (MLL-WT), D1): > 10000 nM | IC50 (OCI-AML-3 (MLL-WT) cells; OCI-AML-3, read-out: IC50 proliferation, OCI-AML-3 (MLL-WT), D4): 200 nM | IC50 (OCI-AML-3 (MLL-WT) cells; OCI-AML-3, read-out: IC50 proliferation, OCI-AML-3 (MLL-WT), D7): 240 nM | IC50 (MV4-11 (MLL-AF4) cells; MV4-11, read-out: IC50 proliferation, MV4-11 (MLL-AF4), D1): > 10000 nM | IC50 (MV4-11 (MLL-AF4) cells; MV4-11, read-out: IC50 proliferation, MV4-11 (MLL-AF4), D4): 100 nM | IC50 (MV4-11 (MLL-AF4) cells; MV4-11, read-out: IC50 proliferation, MV4-11 (MLL-AF4), D7): 220 nM | IC50 (RS4;11 (MLL-AF4) cells; D1): > 10 µM | IC50 (RS4;11 (MLL-AF4) cells; D4): 1.1 µM | IC50 (RS4;11 (MLL-AF4) cells; D7): > 10 µM | IC50 (MOLM-13 (MLL-AF9) cells; MOLM-13, read-out: IC50 proliferation, MOLM-13 (MLL-AF9), D1): > 10000 nM | IC50 (MOLM-13 (MLL-AF9) cells; MOLM-13, read-out: IC50 proliferation, MOLM-13 (MLL-AF9), D4): 110 nM | IC50 (MOLM-13 (MLL-AF9) cells; MOLM-13, read-out: IC50 proliferation, MOLM-13 (MLL-AF9), D7): 220 nM | IC50 (MOLM-14 (MLL-AF9) cells; MOLM-14, read-out: IC50 proliferation, MOLM-14 (MLL-AF9), D1): > 10000 nM | IC50 (MOLM-14 (MLL-AF9) cells; MOLM-14, read-out: IC50 proliferation, MOLM-14 (MLL-AF9), D4): 320 nM | IC50 (MOLM-14 (MLL-AF9) cells; MOLM-14, read-out: IC50 proliferation, MOLM-14 (MLL-AF9), D7): 180 nM | IC50 ([1]; OCI-AML2, read-out: IC50 proliferation, OCI-AML-2 (MLL-AF9), D1): > 10 µM | IC50 ([1]; OCI-AML2, read-out: IC50 proliferation, OCI-AML-2 (MLL-AF9), D4): > 10 µM | IC50 ([1]; OCI-AML2, read-out: IC50 proliferation, OCI-AML-2 (MLL-AF9), D7): > 10 µM | IC50 [2]: 30 to 140 nM
SMILES: Cc1c(-c2ccc(-c3ccccc3F)cc2)nc2ccc(F)cc2c1C(=O)O [Brequinar]
IC50 (SEM (MLL-AF4) cells; read-out: IC50 proliferation, SEM (MLL-AF4), D1): > 10000 nM | IC50 (SEM (MLL-AF4) cells; read-out: IC50 proliferation, SEM (MLL-AF4), D4): 190 nM | IC50 (SEM (MLL-AF4) cells; read-out: IC50 proliferation, SEM (MLL-AF4), D7): 250 nM | IC50 (ML-2 (MLL-AF6) cells; read-out: IC50 proliferation, ML-2 (MLL-AF6), D1): > 10000 nM | IC50 (ML-2 (MLL-AF6) cells; read-out: IC50 proliferation, ML-2 (MLL-AF6), D4): 500 nM | IC50 (ML-2 (MLL-AF6) cells; read-out: IC50 proliferation, ML-2 (MLL-AF6), D7): 310 nM | IC50 (NOMO-1 (MLL-AF9) cells; NOMO-1, read-out: IC50 proliferation, NOMO-1 (MLL-AF9), D1): > 10000 nM | IC50 (NOMO-1 (MLL-AF9) cells; NOMO-1, read-out: IC50 proliferation, NOMO-1 (MLL-AF9), D4): 270 nM | IC50 (NOMO-1 (MLL-AF9) cells; NOMO-1, read-out: IC50 proliferation, NOMO-1 (MLL-AF9), D7): 130 nM | IC50 (KOPN-8 (MLL-ENL) cells; KOPN-8, read-out: IC50 proliferation, KOPN-8 (MLL-ENL), D1): > 10000 nM | IC50 (KOPN-8 (MLL-ENL) cells; KOPN-8, read-out: IC50 proliferation, KOPN-8 (MLL-ENL), D4): 300 nM | IC50 (KOPN-8 (MLL-ENL) cells; KOPN-8, read-out: IC50 proliferation, KOPN-8 (MLL-ENL), D7): 360 nM | IC50 (EOL-1 (MLL-TD) cells; EOL1, read-out: IC50 proliferation, EOL-1 (MLL-TD), D1): > 10000 nM | IC50 (EOL-1 (MLL-TD) cells; EOL1, read-out: IC50 proliferation, EOL-1 (MLL-TD), D4): 380 nM | IC50 (EOL-1 (MLL-TD) cells; EOL1, read-out: IC50 proliferation, EOL-1 (MLL-TD), D7): 110 nM | CD11b protein level [3]: increased CD11b protein level in a dose and time-dependent manner | CD11b level (HL-60 cells): treatment did | cell cycle effect [4]: slight S-phase arrest at lower concentrations

From PMC6599250, “Functional diversity of inhibitors tackling the differentiation blockage of MLL-rearranged leukemia” (Journal of Hematology & Oncology, 2019)
